What all share (assay): greenhouse post-emergence herbicidal test
The test system of test [1] is GERDI. Format: in vivo, Geranium dissectum. Conditions: post emergence; application rate a.i.: I.1 62.5 g/ha, B.87 (carfentrazone-ethyl) 1.75 g/ha, alone or as mixture (composition 1.87). The method in brief: (§1)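 Each species was sown separately, grown to a height of 1 to 15 cm and then sprayed with water-dispersed components A, B and where relevant C. Growth conditions were 10-25° C or 20-35° C, and percent damage was recorded at 20 days.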

The test system of test [2] is LAMAM. Format: in vivo, Lamium amplexicaule. More on the design: key: scale 0 to 100. The procedure:
(§2) The culture containers used were plastic pots containing medium loamy sand with approximately 4.6% of humus and 69.9% sand as substrate. The seeds of the test plants were sown separately for each species.
(§3) For the post-emergence treatment, the test plants were grown to a plant height of from 1 to 15 cm, depending on the plant habit, and only then treated with the active compounds which had been suspended or emulsified in water. To this end, the test plants were either sown directly, and grown in the same containers, or they were first grown separately as seedlings and transplanted into the test containers a few days prior to treatment.
(§4) Depending on the species, the plants were kept at 10-25° C. and 20-35° C., respectively.
(§5) The test period extended over 1 to 3 weeks. During this time, the plants were tended and their response to the individual treatments was evaluated 20 days after treatment except mentioned otherwise.
(§6) Evaluation was carried out using a scale from 0 to 100. 100 means no emergence of the plants, or complete destruction of at least the above-ground parts, and 0 means no damage or normal course of growth.
(§7) The respective stated components A and B, and, if appropriate, C, were formulated as a 10% by weight strength emulsion concentrate and, with addition of the amount of solvent system, introduced into the spray liquor used for applying the active compound. In the examples, the solvent used was water.
(§8) In the examples below, using the method of S. R. Colby (1967) “Calculating synergistic and antagonistic responses of herbicide combinations”, Weeds 15, p. 22 ff., the value E, which is expected if the activity of the individual active compounds is only additive, was calculated. E=X+Y−(X·Y/100)

The subject of test [3] is PAPRH. Format: in vivo, Papaver rhoeas. Conditions: application rate a.i.: I.1 62.5 g/ha, B.87 (carfentrazone-ethyl) 1.75 g/ha, alone or as mixture (composition 1.87). The method in brief: as §1
The test system of test [4] is GERPU. Format: in vivo, Geranium pusillum. The conditions noted are these: application rate a.i.: I.1 31.25 g/ha. The procedure: as §2, §3, §4, §5, §6, §7, §8
Test [5] concerns SEBEX. Format: in vivo, Sesbania exaltata. Conditions: application rate a.i.: I.1 31.25 g/ha. The procedure:
as §2, §3, §4, §5, §6, §7, §8

Test [6] has as its system MATCH. In kind it is in vivo, Matricaria recutita. Conditions: post emergence. In short, it runs like this:
as §1

Test [7] concerns POLPE. Format: in vivo, Persicaria maculosa. Conditions: application rate a.i.: I.1 31.25 g/ha, B.139 (pyroxasulfone) 12.5 g/ha, alone or as mixture (composition 1.139). Also on record: key: scale 0 to 100. The procedure: as §2, §3, §4, §5, §6, §7, §8
For test [8], the system named is CONAR. Format: in vivo, Convolvulus arvensis. Also on record: key: rating on a scale from 0 to 100. The method in brief: as §1
The test system of test [9] is POLCO. In kind it is in vivo, Polygonum convolvulus. Conditions: post emergence. Also on record: key to herbicidal activity against POLCO found: rating on a scale from 0 to 100. The method in brief:
(§9)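 Post-emergence greenhouse test: plants in loamy sand, sprayed at 1–15 cm height with aqueous spray liquor from 10% emulsion concentrates, kept at 10-25 °C or 20-35 °C by species. Damage scored 0–100 (100 = complete destruction), usually 20 days after treatment. Expected additive effect E from Colby: E=X+Y−(X·Y/100).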

Test [10] has as its system AMBEL. Format: in vivo, Ambrosia artemisiifolia. More on the design: key: rating on a scale from 0 to 100. Conditions: application rate a.i.: I.1 31.25 g/ha, B.139 (pyroxasulfone) 12.5 g/ha, alone or as mixture (composition 1.139). The method in brief:
as §1

In test [11] the test system is ABUTH. In kind it is in vivo, Abutilon theophrast. More on the design: key to herbicidal activity against ABUTH found: rating on a scale from 0 to 100. Conditions: post emergence. In short, it runs like this: as §1
The test system of test [12] is SASKR. Format: in vivo, Salsola kali. The conditions noted are these: 6 days after treatment. The procedure: as §2, §3, §4, §5, §6, §7, §8
Test [13] concerns VIOAR. Format: in vivo, Viola arvensis. The conditions noted are these: post emergence, 6 days after treatment. In short, it runs like this: as §9
The test system of test [14] is ERICA. Format: in vivo, Conyza canadensis. Conditions: post emergence; 6 days after treatment; g/ha a.i.: I.1 125; naptalam 50; mixture 125+50. In short, it runs like this: as §1
Test [15] deals with SORVU. Format: in vivo. Conditions: 6 days after treatment, g/ha a.i.: I.1 62.5, naptalam 200, mixture 62.5+200.
For test [16], the system named is POLAV. In kind it is in vivo, Polygonum aviculare. Conditions: 6 days after treatment. The procedure:
as §2, §3, §4, §5, §6, §7, §8

The test system of test [17] is KCHSC. Format: in vivo, Kochia scoparia. The conditions noted are these: post emergence, 6 days after treatment, g/ha a.i.: I.1 31.25. In short, it runs like this: as §9
[18] abbreviates: application rate a.i.: I.1 31.25 g/ha, B.87 (carfentrazone-ethyl) 1.75 g/ha, alone or as mixture (composition 1.87).
Where [19] appears, read: application rate a.i.: I.1 62.5 g/ha, B.87 (carfentrazone-ethyl) 1.75 g/ha, alone or as mixture (composition 1.87).
[20] abbreviates: B.87 (carfentrazone-ethyl) 1.75 g/ha, alone or as mixture (composition 1.87).
The mark [21] stands for this setting: application rate a.i.: I.1 31.25 g/ha, B.139 (pyroxasulfone) 25 g/ha, alone or as mixture (composition 1.139).
Setting [22] is: application rate a.i.: I.1 31.25 g/ha, B.139 (pyroxasulfone) 12.5 g/ha, alone or as mixture (composition 1.139).
[23] abbreviates: B.139 (pyroxasulfone) 25 g/ha, alone or as mixture (composition 1.139).
Setting [24] is: g/ha a.i.: I.1 31.25, naptalam 200, mixture 31.25+200.
[25] abbreviates: g/ha a.i.: I.1 62.5, naptalam 50, mixture 62.5+50.
[26] abbreviates: g/ha a.i.: I.1 62.5, naptalam 200, mixture 62.5+200.
Setting [27] is: g/ha a.i.: I.1 62.5, naptalam 100, mixture 62.5+100.
[28] abbreviates: 6 days after treatment, g/ha a.i.: I.1 31.25, naptalam 50, mixture 31.25+50.
[29] abbreviates: 6 days after treatment, g/ha a.i.: I.1 31.25, naptalam 100, mixture 31.25+100.
Setting [30] is: 6 days after treatment, g/ha a.i.: I.1 62.5, naptalam 50, mixture 62.5+50.

Take `CCOC(=O)C(Cl)Cc1cc(-n2nc(C)n(C(F)F)c2=O)c(F)cc1Cl` (stereo not shown) [B.87, carfentrazone-ethyl]: in test [1], the “herbicidal activity against GERDI found” value is reported as 70. Besides, the “herbicidal activity against LALAM, found” value in test [2] (setting [18]) is reported as 80. Besides, the “herbicidal activity against LAMAM, found” value in [2] (setting [19]) is on record as 80. In addition, the “herbicidal activity against PAPRH found” value in test [3] stood at 30. For the same compound, the “herbicidal activity against GERPU, found” value in [4] (setting [20]) is reported as 75. Further, the “herbicidal activity against SEBEX, found” value in test [5] (setting [20]) came to 75. In addition, the “herbicidal activity against MATCH found” value in test [6] (setting [18]) and in [6] (setting [19]) was 75 each time.

With `Cn1nc(C(F)(F)F)c(CS(=O)(=O)C2=NOC(C)(C)C2)c1OC(F)F` [B.139, pyroxasulfone], in test [2] (setting [21]), the “herbicidal activity against LAMAM, found” value is 45. In addition, the “herbicidal activity against POLPE found” value in [7] was determined as 55. The “herbicidal activity against CONAR found” value in test [8] (setting [22]) and in test [8] (setting [21]) was 60 throughout. For the same compound, the “herbicidal activity against GERPU, found” value in test [4] (B.139 (pyroxasulfone) 12.5 g/ha, alone or as mixture (composition 1.139)) was 0; in [4] (setting [23]) it was 25. Further, the “herbicidal activity against POLCO found” value in test [9] (setting [22]) came out at 15. In addition, the “herbicidal activity against SEBEX, found” value in [5] (setting [23]) is recorded as 35. Moreover, in test [10], the “herbicidal activity against AMBEL found” value is reported as 10. Also, the “herbicidal activity against ABUTH found” value in test [11] (setting [21]) is given as 60.

For the compound `O=C(O)c1ccccc1C(=O)Nc1cccc2ccccc12` [naptalam], the “herbicidal activity against SASKR found” value in test [12] (setting [24]) is given as 80; in [12] (setting [25]), 70; in test [12] (setting [26]), 80. The “herbicidal activity against VIOAR found” value in test [13] (setting [24]) was 70; in test [13] (setting [27]), 65; in test [13] (setting [26]) it was 70. Besides, the “herbicidal activity against CONAR found” value in [8] (setting [28]) is 80; in test [8] (setting [29]), 80; in test [8] (6 days after treatment, g/ha a.i.: I.1 31.25, naptalam 200, mixture 31.25+200), 80; in test [8] (6 days after treatment, g/ha a.i.: I.1 125, naptalam 100, mixture 125+100), 80. Moreover, in test [14], the “herbicidal activity against ERICA found” value is given as 80. Further, the “herbicidal activity against POLCO found” value in [9] (setting [28]) and in [9] (setting [30]) was 75 throughout. The “herbicidal activity against SORVU found” value in test [15] is reported as 50. For the same compound, the “herbicidal activity against POLAV found” value in test [16] (g/ha a.i.: I.1 31.25, naptalam 50, mixture 31.25+50) amounted to 70; in test [16] (setting [24]), 75; in test [16] (setting [25]), 70; in test [16] (setting [27]), 75; in [16] (setting [26]) it was 75. The “herbicidal activity against ABUTH found” value in [11] (setting [29]) is listed as 85. Besides, the “herbicidal activity against MATCH found” value in test [6] (setting [28]) stood at 30; in [6] (setting [29]) it was 65; in test [6] (setting [30]), 30. Further, the “herbicidal activity against KCHSC found” value in [17] (naptalam 100, mixture 31.25+100) came out at 85; in test [17] (naptalam 200, mixture 31.25+200), 85.

Source of the values: patent US10881110B2, “Herbicidal compositions comprising isoxazolo[5,4-b]pyridines” (BASF SE, priority 2014, dated 2021).
